{
  "source": "patent US20110053884A1",
  "about": "“POTENT COMBINATIONS OF […] DRUGS THAT SELECT FOR THE K65R MUTATION IN THE HIV POLYMERASE” (priority 2007, published 2011)",
  "key": {"[1]": {"system": "HIV-1", "conditions": "incubation up to week 28; cited from earlier work"}, "[2]": {"system": "HIV", "assay": "Randomized double blind placebo controlled study, HIV RNA viral load over 10 days of treatment", "format": "in vivo, human", "description": "(§1) Subjects with HIV RNA viral load (VL)≧5,000 copies/mL were enrolled and randomized 1:1:1 to DAPD 500 mg bid: DAPD 500 mg with AZT 300 mg bid: DAPD 500 mg with AZT 200 mg bid for 10 days. In each arm, subjects were randomized 3:1 to DAPD: placebo. VL was determined daily."}, "[3]": {"conditions": "single dose, intravenous and oral, HIV-1 infected individuals; cited from earlier work"}, "[4]": {"target": "T1, TK1 (Homo sapiens, UniProt P04183)", "T1 sequence (P04183 1-234)": "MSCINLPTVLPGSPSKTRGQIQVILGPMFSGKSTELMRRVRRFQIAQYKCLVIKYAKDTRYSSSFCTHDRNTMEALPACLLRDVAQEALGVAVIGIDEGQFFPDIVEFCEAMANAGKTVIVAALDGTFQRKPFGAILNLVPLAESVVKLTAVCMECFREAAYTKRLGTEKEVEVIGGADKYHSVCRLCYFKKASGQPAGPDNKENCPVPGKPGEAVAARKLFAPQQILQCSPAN", "assay": "Phosphorylation of AZT to AZT-MP by thymidine kinase", "format": "biochemical", "conditions": "activated PBM cells", "from_the_text": "(§2) The initial intracellular phosphorylation step of AZT is catalyzed by thymidine kinase (TK). The most likely enzyme for monophosphorylation to AZT-MP is TK1, which is located primarily in the cytosol of cells in S-phase. […] Since the initial phosphorylation step of AZT to AZT-MP remains approximately linear with dose (5, 22), the Vmax,TK1 was assumed constant between individuals. […] The maximal rates of phosphorylation to AZT-MP and AZT-DP (Vmax,AZT-MP and Vmax,ThymK, respectively) in activated PBM cells were calculated using previously published enzyme kinetics measurements from a cohort of HIV-1 infected individuals who were not previously treated with AZT (36). […] The calculation assumed a volume of 0.21 μl/10^6, corresponding to a protein content of 0.12 mg (3, 33). The final phosphorylation step to active AZT-TP is catalyzed by nucleoside diphosphate kinase and is not rate limiting under physiological conditions. […] Therefore, the conversion rate of AZT-DP to AZT-TP (KDP,TP) was also assumed to be 0.28 h^−1. The assumed distributions for the rate constants describing the cellular phosphorylation and dephosphorylation of AZT are contained in Table 2."}, "[5]": {"system": "PBM cells", "conditions": "cited from earlier work; for Rate of dephosphorylation: in vivo"}, "[6]": {"target": "T2, thymidylate kinase (Homo sapiens, UniProt P23919)", "T2 sequence (P23919 1-212)": "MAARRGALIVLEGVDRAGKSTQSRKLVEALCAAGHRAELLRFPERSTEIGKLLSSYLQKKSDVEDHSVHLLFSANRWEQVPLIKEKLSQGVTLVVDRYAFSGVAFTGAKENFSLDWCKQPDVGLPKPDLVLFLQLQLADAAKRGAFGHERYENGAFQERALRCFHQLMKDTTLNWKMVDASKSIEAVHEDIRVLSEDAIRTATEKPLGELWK", "conditions": "cited from earlier work; for Km: substrate AZT-MP, read-out: Km versus thymidylate kinase (Km,ThmK)"}, "[7]": {"target": "T2, thymidylate kinase", "assay": "Phosphorylation of AZT-MP to AZT-DP by thymidylate kinase", "format": "biochemical", "conditions": "activated PBM cells of HIV-1 infected individuals not previously treated with AZT; SD of log-transformed values 0.89", "from_the_text": "as §2"}, "[8]": {"conditions": "Day 20; rank order of treatment groups (mg bid)", "description": "Twenty-four subjects were enrolled [placebo (n=2), AZT 200 mg (n=2), AZT 300 mg (n=2), DAPD 500 mg (n=6), DAPD/AZT 200 mg (n=6), and DAPD/AZT 300 mg (n=6)] and treated for 10 days. Hematological indices including hemoglobin (g/dl) and mean corpuscular volume (MCV, femtoliters) were measured at Screening, Day 1 prior to receiving treatment and Days 5, 10 and 20."}, "[9]": {"target": "T1, TK1", "conditions": "concentration at 50% of maximal metabolism rate; read-out: Km versus TK1; cited from earlier work"}, "[10]": {"target": "wild-type HIV-1 reverse transcriptase (Human immunodeficiency virus type 1 group M subtype B, UniProt P03366)", "conditions": "cited from earlier work"}, "[11]": {"assay": "Tolerability in the DAPD/AZT clinical study", "format": "in vivo, human", "conditions": "10 days of treatment, HIV-infected subjects", "description": "as §1"}, "[12]": {"conditions": "cited from earlier work"}},
  "data": [
    {"smiles": "Cc1cn([C@H]2C[C@H](N=[N+]=[N-])[C@@H](CO)O2)c(=O)[nH]c1=O", "note": "[AZT, 3′-azido-3′-deoxythymidine]", "values": [
      {"measurement": "Drug resistant mutations selected in vitro", "setting": "[1]", "result": "a mixture of K70K/R mutations at week 25"},
      {"measurement": "Mean VL ± SD from baseline", "setting": "[2]; Day 9, AZT 200 mg bid alone", "result": "−0.80", "unit": "log10 copies/mL"},
      {"measurement": "Mean VL ± SD from baseline", "setting": "[2]; Day 9, AZT 300 mg bid alone", "result": "−0.35", "unit": "log10 copies/mL"},
      {"measurement": "Mean VL ± SD from baseline", "setting": "[2]; Day 10, AZT 200 mg bid alone", "result": "−0.65", "unit": "log10 copies/mL"},
      {"measurement": "Mean VL ± SD from baseline", "setting": "[2]; Day 10, AZT 300 mg bid alone", "result": "−0.45", "unit": "log10 copies/mL"},
      {"measurement": "Mean VL ± SD from baseline", "setting": "[2]; Day 11, AZT 200 mg bid alone", "result": "−0.70", "unit": "log10 copies/mL"},
      {"measurement": "Mean VL ± SD from baseline", "setting": "[2]; Day 11, AZT 300 mg bid alone", "result": "−0.60", "unit": "log10 copies/mL"},
      {"measurement": "Systemic clearance (Cl)", "setting": "[3]", "result": "18.3 to 25", "unit": "mL/min/kg"},
      {"measurement": "Volume of distribution (Vss)", "setting": "[3]", "result": "1.3 to 1.4", "unit": "L/kg"},
      {"measurement": "Vmax,TK1, maximal rate of phosphorylation to AZT-MP", "setting": "[4]", "result": 0.86, "unit": "μmol/l per hr"},
      {"measurement": "Accumulation of AZT nucleotides, stimulated versus resting PBM cells", "setting": "[5]", "result": "60 to 150", "unit": "times"},
      {"measurement": "Rate of dephosphorylation", "setting": "[5]", "result": 0.28, "unit": "h⁻¹"},
      {"measurement": "Km", "setting": "[6]", "result": 12, "unit": "µM"},
      {"measurement": "Vmax,ThymK, median", "setting": "[7]", "result": 0.13, "unit": "μmol/l per hr"},
      {"measurement": "Trend in decrease in hemoglobin from Baseline", "setting": "[8]", "result": "DAPD/AZT 300≧AZT 300≧DAPD/AZT 200>AZT 200>DAPD>placebo"},
      {"measurement": "Trend in increase in MCV from Baseline", "setting": "[8]", "result": "DAPD/AZT 300>AZT 300>DAPD/AZT 200>AZT 200>placebo>DAPD"},
      {"measurement": "Km", "setting": "[9]", "result": 0.6, "unit": "µM"}
    ]},
    {"smiles": "Cc1cn([C@H]2C[C@H](N=[N+]=[N-])[C@@H](COP(=O)(O)OP(=O)(O)O)O2)c(=O)[nH]c1=O", "note": "[AZT-DP, AZT-diphosphate]", "values": [
      {"measurement": "Rate of dephosphorylation", "setting": "[5]", "result": 0.28, "unit": "h⁻¹"}
    ]},
    {"smiles": "Cc1cn([C@H]2C[C@H](N=[N+]=[N-])[C@@H](COP(=O)(O)O)O2)c(=O)[nH]c1=O", "note": "[AZT-MP, zidovudine-monophosphate]", "values": [
      {"measurement": "Rate of dephosphorylation", "setting": "[5]", "result": 0.28, "unit": "h⁻¹"},
      {"measurement": "Km", "setting": "[6]", "result": 12, "unit": "µM"},
      {"measurement": "Vmax,AZT-MP as share of the Vmax versus thymidine-MP", "setting": "[6]; thymidylate kinase", "result": 0.3, "unit": "%"},
      {"measurement": "Vmax,ThymK, median", "setting": "[7]", "result": 0.13, "unit": "μmol/l per hr"}
    ]},
    {"smiles": "Cc1cn([C@H]2C[C@H](N=[N+]=[N-])[C@@H](CO[P@](=O)(O)O[P@](=O)(O)OP(=O)(O)O)O2)c(=O)[nH]c1=O", "note": "[AZT-TP, zidovudine-triphosphate]", "values": [
      {"measurement": "IC50", "setting": "[10]", "result": "~35", "unit": "nM"},
      {"measurement": "Rate of dephosphorylation", "setting": "[5]", "result": 0.28, "unit": "h⁻¹"}
    ]},
    {"smiles": "Nc1nc(N)c2ncn([C@H]3CO[C@@H](CO)O3)c2n1", "note": "[DAPD, (−)-β-D-2,6-diaminopurine dioxolane]", "values": [
      {"measurement": "Tolerability", "setting": "[11]", "result": "well tolerated"},
      {"measurement": "Drug resistant mutations selected in vitro", "setting": "[1]", "result": "a mixture of K65R and L74V at week 20"},
      {"measurement": "Mean VL ± SD from baseline", "setting": "[2]; Day 9, DAPD 500 mg bid alone", "result": "−0.83 ± 0.61", "unit": "log10 copies/mL"},
      {"measurement": "Mean VL ± SD from baseline", "setting": "[2]; Day 10, DAPD 500 mg bid alone", "result": "−1.07 ± 0.80", "unit": "log10 copies/mL"},
      {"measurement": "Mean VL ± SD from baseline", "setting": "[2]; Day 11, DAPD 500 mg bid alone", "result": "−1.03 ± 0.59", "unit": "log10 copies/mL"},
      {"measurement": "Trend in decrease in hemoglobin from Baseline", "setting": "[8]", "result": "DAPD/AZT 300≧AZT 300≧DAPD/AZT 200>AZT 200>DAPD>placebo"},
      {"measurement": "Trend in increase in MCV from Baseline", "setting": "[8]", "result": "DAPD/AZT 300>AZT 300>DAPD/AZT 200>AZT 200>placebo>DAPD"}
    ]},
    {"smiles": "Nc1nc2c(ncn2[C@H]2CO[C@@H](CO)O2)c(=O)[nH]1", "note": "[DXG, beta-D-(2R,4R)-1,3-dioxolane guanosine]", "values": [
      {"measurement": "Cellular triphosphate half-life", "setting": "[12]", "result": "~9.5", "unit": "h"}
    ]},
    {"smiles": "C[C@H](Cn1cnc2c(N)ncnc21)OCP(=O)(O)O", "note": "[tenofovir, 9-R-2-phosphonomethoxypropyl adenine]", "values": [
      {"measurement": "Cellular triphosphate half-life", "setting": "[12]", "result": "> 60", "unit": "h"}
    ]}
  ]
}
